Test results: article PMC10731318, “Heterologously expressed SacP23, a novel bacteriocin from Paenibacillus polymyxa #23, is active against methicillin resistant Staphylococcus aureus” (Royal Society Open Science, 2023)

Legend:
[1] = tested on: E. coli ATCC 25922; assay type: cell-based; settings: purified SacP23, medium MHA
[2] = tested on: C. jejuni ATCC 81116; assay type: cell-based, Campylobacter jejuni; settings: purified SacP23, medium MHA + 5% sheep blood
[3] = tested on: B. cereus ATCC 10876; assay type: cell-based, Bacillus cereus; settings: purified SacP23, medium MHA
[4] = tested on: pronase E; settings: pronase E 1 mg ml^−1, 1 h; spot-on-lawn versus untreated sample
[5] = tested on: lipase; settings: lipase 1 mg ml^−1, 1 h; spot-on-lawn versus untreated sample
[6] = tested on: S. aureus MRSA 344/2-24; assay type: cell-based, Staphylococcus aureus
[7] = tested on: trypsin; settings: trypsin 1 mg ml^−1, 1 h; spot-on-lawn versus untreated sample
[8] = tested on: L. monocytogenes192/1-2 ACM 3173; assay type: cell-based, Listeria monocytogenes; settings: purified SacP23; L. monocytogenes 192/1-2 ACM 3173; medium MHA
[9] = tested on: L. plantarum A6; assay type: cell-based, Lactobacillus plantarum; settings: purified SacP23, medium deMan, Rogosa and Sharpe (MRS)
[10] = tested on: B. subtilis BS34A; assay type: cell-based, Bacillus subtilis
[11] = tested on: S. aureus ATCC 25923; assay type: cell-based, Staphylococcus aureus; settings: purified SacP23, medium MHA, clear zone, 30°C 12–18 h
[12] = target: proteinase K (Parengyodontium album, UniProt P06873); settings: proteinase K 1 mg ml^−1, 1 h; spot-on-lawn versus untreated sample
[13] = tested on: C. perfringens EHE-NE18; assay type: cell-based, Clostridium perfringens; settings: purified SacP23, medium MHA
[14] = tested on: E. faecalis (VRE) 345/19; assay type: cell-based, Enterococcus faecalis; settings: purified SacP23, medium MRS
[15] = tested on: catalase; settings: catalase 1 mg ml^−1, 1 h; spot-on-lawn versus untreated sample
[16] = tested on: S. Enteritidis ATCC 13076; assay type: cell-based, Salmonella Enteritidis; settings: purified SacP23, medium MHA
[17] = tested on: Pseudomonas aeruginosa and K. pneumonia; settings: cited from earlier work
[18] = tested on: many Gram-negative bacteria including colistin-resistant Klebsiella pneumonia, E. coli, and Campylobacter species; settings: cited from earlier work
[19] = tested on: many phytopathogens and Gram-positive bacteria; settings: cited from earlier work
[20] = isolated from a Cyanobacteria sp.; cited from earlier work
[21] = tested on: Gram-negative and Gram-positive pathogens including antibiotic-resistant strains of E. coli, P. aeruginosa, Acinetobacter baumannii, K. pneumoniae, S. aureus …; settings: cited from earlier work
[22] = tested on: Gram-positive and Gram-negative bacteria; settings: cited from earlier work
Excerpt: Further studies need to be undertaken to fully assess the potency of the SacP23 by performing minimum inhibitory concentration tests for a range of sensitive bacteria. […] This indicates the diversity in antimicrobial spectra of sactipeptide-type ...

proteinase K, sequence (P06873 106-384): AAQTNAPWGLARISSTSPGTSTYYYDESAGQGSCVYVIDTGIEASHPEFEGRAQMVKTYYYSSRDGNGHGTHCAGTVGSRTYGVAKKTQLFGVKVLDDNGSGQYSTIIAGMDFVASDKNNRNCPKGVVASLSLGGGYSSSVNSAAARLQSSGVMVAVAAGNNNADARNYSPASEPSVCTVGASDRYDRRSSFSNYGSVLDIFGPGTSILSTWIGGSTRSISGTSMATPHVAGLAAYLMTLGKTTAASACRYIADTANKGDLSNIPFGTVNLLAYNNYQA

For “MRKLVKRSTNVGDTIEAFGCGCSCYCPCSCYCAGSLTRSSNTSRESDGSYRRDNGTGIGN [SacP23, novel sactipeptide bacteriocin from Paenibacillus polymyxa #23, heterologously expressed in B. subtilis BS34A and purified; mature structure not elucidated]”, the antimicrobial activity [1] was “−”, the antimicrobial activity [2] was “−” and the antimicrobial activity [3] was “+”. For the same substance, the “enzymatic stability: remaining antimicrobial activity after pronase E” value [4] was “sensitive”, the “enzymatic stability: remaining antimicrobial activity after lipase” value [5] was “resistant” and the “antimicrobial activity against an MRSA isolate” value ([6]; heterologously expressed recombinant SacP23, result in words) was “strong activity”. The antimicrobial activity ([6]; purified SacP23, S. aureus MRSA 344/2-24, medium MHA, clear zone, 30°C 12–18 h) was “+”, the “enzymatic stability: remaining antimicrobial activity after trypsin” value [7] was “sensitive” and the antimicrobial activity [8] was “−”. The antimicrobial activity [9] was “−”, the antimicrobial activity ([10]; purified SacP23, B. subtilis BS34A, medium MHA) was “+” and the “sensitivity of the base B. subtilis expression strain” value ([10]; recombinant SacP23, result in words) was “sensitive”. For the same substance, the antimicrobial activity [11] was “+”, the “enzymatic stability: remaining antimicrobial activity after proteinase K” value [12] was “sensitive” and the antimicrobial activity [13] was “−”. For the same substance, the antimicrobial activity [14] was “+”, the “enzymatic stability: remaining antimicrobial activity after catalase” value [15] was “resistant” and the antimicrobial activity [16] was “−”.

In the case of Polymyxin, the growth suppression [17] is given as “suppress the growth”.

In the case of Tridecaptin, the “activity against Gram-negative bacteria” value [18] is listed as “strong activity”.

In the case of fusaricidin B, the inhibitory activity [19] is listed as “inhibitory activity”.

For landornamide A, the antiviral activity [20] is listed as “antiviral activity”.

In the case of paenibacterin, the antimicrobial activity [21] is given as “antimicrobial activity”.

For “subtilosin A (cyclo(NKGCATCSIGAACLVDGPIPDFEIAGATGLFGLWG); ends not checked; also: sactipeptide thioether linkages between Cys and alpha-carbons, positions not given here; UniProt O07623 9-43, looked up)”, the antimicrobial spectrum [22] is given as “antimicrobial activity extending to both Gram-positive and Gram-negative bacteria”.
